In US20230058623A1, “NOVEL HETEROARYL-TRIAZOLE COMPOUNDS AS PESTICIDES” (Bayer Aktiengesellschaft, priority 2019, published 2023):

What was measured:
Format in all cases: in vivo
[1] = system: Rhipicephalus (Boophilus) microplus larvae (strain Parkhurst, resistant against synthetic pyrethroids); experiment: Rhipicephalus (Boophilus) microplus in-vitro contact test, larval cattle tick; conditions: after 48 hours, read-out: activity (efficacy: larvae dead or moribund); for pest or weed control at 1 µg/cm2, 100 g/ha: application rate 1 μg/cm^2 (=100 g/ha); for pest or weed control at 5 µg/cm2, 500 g/ha: application rate 5 μg/cm^2 (=500 g/ha)
Protocol: Rhipicephalus (Boophilus) microplus—In-Vitro Contact Tests Larval Cattle Tick (Strain Parkhurst, Resistant Against Synthetic Pyrethroids)
9 mg compound is solved in 1 ml acetone and diluted with acetone to the desired concentration. 250 μL of the test solution is filled in 25 mL glass test tubes and homogeneously distributed on the inner walls by rotation and tilting on a shaking device (2 h at 30 rpm). With a compound concentration of 900 ppm, an inner surface of 44.7 cm^2 and a homogeneous distribution, a dose of 5 μg/cm^2 is achieved.
After the solvent has evaporated, each test tube is filled with 20-50 cattle tick larvae (Rhipicephalus microplus), closed with a perforated lid and incubated in a horizontal position at 85% relative humidity and 27° C. in an incubator. After 48 hours efficacy is determined. The larvae are patted on the ground of the tubes and negative geotactic behavior is recorded.
An efficacy of 100% means all larvae are dead or moribund; 0% means no larvae are dead or moribund.

[2] = system: larvae of the banded cucumber beetle (Diabrotica balteata); experiment: Diabrotica balteata spray test; conditions: 168 h, application rate 100 g/ha (=32 μg/well), after 7 days, wheat seeds, read-out: activity (efficacy: seedlings grown)
Protocol: Diabrotica balteata—Spray Test
To produce a suitable preparation of active compound, 1 part by weight of active compound is mixed with the stated amount of solvent, and the concentrate is diluted with water, containing an emulsifier concentration of 1000 ppm, to the desired concentration. Further test concentrations are prepared by dilution with emulsifier containing water.
Soaked wheat seeds (Triticum aestivum) are placed in a multiple well plate filled with agar and some water and are incubated for 1 day to germinate (5 seeds per well). The germinated wheat seeds are sprayed with a test solution containing the desired concentration of the active ingredient. Afterwards each unit is infected with 10-20 larvae of the banded cucumber beetle (Diabrotica balteata).
After 7 days efficacy in % is determined. 100% means all the seedlings have grown up like in the untreated, uninfected control; 0% means none of the seedlings have grown.

[3] = system: adult brown dog ticks (Rhipicephalus sanguineus); experiment: Rhipicephalus sanguineus in-vitro contact test, adult brown dog ticks; conditions: application rate 5 μg/cm^2 (=500 g/ha), after 48 hours, read-out: activity (efficacy: ticks dead or moribund)
Protocol: Rhipicephalus sanguineus—In-Vitro Contact Tests with Adult Brown Dog Ticks
(§1) 9 mg compound is solved in 1 mL acetone and diluted with acetone to the desired concentration. 250 μL of the test solution is filled in 25 mL glass test tubes and homogeneously distributed on the inner walls by rotation and tilting on a shaking device (2 h at 30 rpm). With a compound concentration of 900 ppm, an inner surface of 44.7 cm^2 and a homogeneous distribution, a dose of 5 μg/cm^2 is achieved.
After the solvent has evaporated, each test tube is filled with 5-10 adult brown dog ticks (Rhipicephalus sanguineus), closed with a perforated lid and incubated in a lying position at room temperature and relative humidity. After 48 hours efficacy is determined. The ticks are patted on the ground of the tubes and are incubated on a heating plate at 45-50° C. for at most 5 minutes. Immotile or uncoordinated moving ticks, which are not able to escape the heat by climbing upwards, are marked as dead or moribund.
An efficacy of 100% means all ticks are dead or moribund; 0% means no ticks are dead or moribund.

[4] = system: green peach aphid (Myzus persicae); experiment: Myzus persicae oral test; conditions: 120 h, read-out: activity (mortality)
Protocol: Solvent: 100 parts by weight acetone
To produce a suitable preparation of active compound, 1 part by weight of active compound is mixed with the stated amount of solvent, and the concentrate is diluted with water to the desired concentration.
50 μL compound solution is filled in microtiter plates and 150 μL IPL41 insect medium (33%+15% sugar) is added to obtain a total volume of 200 μL per well. Afterwards the plates are sealed with parafilm through which a mixed population of the green peach aphid (Myzus persicae) can suck on the compound preparation.
(§2) After 5 days mortality in % is determined. 100% means all aphids have been killed and 0% means none of the aphids have been killed.

[5] = system: adult cat fleas (Ctenocephalides felis); experiment: Ctenocephalides felis in-vitro contact test, adult cat flea; conditions: application rate 5 μg/cm^2 (=500 g/ha), after 48 hours, read-out: activity (efficacy: fleas dead or moribund)
Protocol: Ctenocephalides felis—In-Vitro Contact Tests Adult Cat Flea
as §1
After the solvent has evaporated, each test tube is filled with 5-10 adult cat fleas (Ctenocephalides felis), closed with a perforated lid and incubated in a lying position at room temperature and relative humidity. After 48 hours efficacy is determined. The fleas are patted on the ground of the tubes and are incubated on a heating plate at 45-50° C. for at most 5 minutes. Immotile or uncoordinated moving fleas, which are not able to escape the heat by climbing upwards, are marked as dead or moribund.
An efficacy of 100% means all fleas are dead or moribund; 0% means no fleas are dead or moribund.

[6] = system: green peach aphid (Myzus persicae); experiment: Myzus persicae spray test; conditions: foliar, 120 h, after 5 days, Chinese cabbage leaf disks; for mortality at 100 g/ha: application rate 100 g/ha, read-out: activity (mortality)
Protocol: Myzus persicae—Spray Test
(§3) To produce a suitable preparation of active compound, 1 part by weight of active compound is mixed with the stated amount of solvents and is diluted with water, containing an emulsifier concentration of 1000 ppm, to the desired concentration. Further test concentrations are prepared by dilution with emulsifier containing water.
Chinese cabbage (Brassica pekinensis) leaf disks infected with all instars of the green peach aphid (Myzus persicae), are sprayed with a preparation of the active ingredient of the desired concentration.
as §2

[7] = system: fall armyworm larvae (Spodoptera frugiperda); experiment: Spodoptera frugiperda spray test; conditions: 168 h, application rate 100 g/ha, after 7 days, maize leaf sections
Protocol: Spodoptera frugiperda—Spray Test
as §3
Maize (Zea mays) leaf sections are sprayed with a preparation of the active ingredient of the desired concentration. Once dry, the leaf sections are infested with fall armyworm larvae (Spodoptera frugiperda).
After 7 days mortality in % is determined. 100% means all caterpillars have been killed and 0% means none of the caterpillars have been killed.

Compound | pest or weed control at 1 µg/cm2, 100 g/ha [1] | pest or weed control at 5 µg/cm2, 500 g/ha [1] | pest or weed control at 32 µg/disc, 100 g/ha [2] | pest or weed control at 5 µg/cm2, 500 g/ha [3] | mortality at 4 ppm [4] | pest or weed control at 5 µg/cm2 [5] | mortality at 100 g/ha [6] | mortality at 100 g/ha [7] | mortality at 500 g/ha ([6]; application rate 500 g/ha)
Cc1nc([C@H](C)NC(=O)c2cc(C(F)(F)F)cc(C(F)(F)F)c2)n(-c2ccc(C(=O)N3C[C@@H](C)O[C@@H](C)C3)nn2)n1 [Example I-139] | 100% | 100% | 100% | 100% | – | – | – | – | –
Cc1nc([C@H](C)NC(=O)c2cc(C(F)(F)F)cc(C(F)(F)F)c2)n(-c2ccc(C(=O)N3CCOCC3c3ncno3)cn2)n1 (stereo partly shown) [Example I-99] | 100% | 100% | – | 80% | 100% | 100% | 90% | – | –
C[C@H](NC(=O)c1cc(Cl)cc(C(F)(F)F)c1)c1ncnn1-c1ccc(N2CCSCC2=O)cn1 [Example I-55] | – | – | – | – | 100% | 80% | – | – | –
C[C@H](NC(=O)c1cc(Cl)cc(C(F)(F)F)c1)c1ncnn1-c1ccc(N2CCOCC2)cn1 [Example I-43] | 100% | 100% | 100% | 100% | – | – | – | – | –
C[C@H](NC(=O)c1cc(C(F)(F)F)cc(C(F)(F)F)c1)c1ncnn1-c1ccc(C(=O)N(C)C2CCOCC2)cn1 [Example I-110] | 100% | 100% | – | – | 100% | 100% | 90% | 100% | –
Cc1nc([C@H](C)NC(=O)c2cc(Br)cc(OC(F)(F)F)c2)n(-c2ncc(C(=O)N3CCOCC3)s2)n1 [Example I-136] | 100% | 100% | – | 100% | – | – | – | 100% | –
C[C@H](NC(=O)c1cc(C(F)(F)F)cc(C(F)(F)F)c1)c1ncnn1-c1ccc(C(=O)N2CCOC[C@H]2C)cn1 [Example I-71] | 100% | 100% | 100% | 80% | 100% | 100% | – | 100% | –
C[C@@H]1CN(C(=O)c2ccc(-n3ncnc3[C@H](C)NC(=O)c3cc(Cl)cc(S(C)(=O)=O)c3)nc2)C[C@H](C)O1 [Example I-53] | – | – | – | – | 100% | 100% | – | 100% | –
C[C@H](NC(=O)c1cc(OC(F)(F)F)cc(C2CC2)c1)c1ncnn1-c1ccc(C(=O)N2CCOC[C@@H]2C)cn1 [Example I-66] | 100% | 100% | 100% | – | – | 100% | – | 83% | –
C[C@H](NC(=O)c1cc(C(F)(F)F)cc(C(F)(F)F)c1)c1ncnn1-c1ccc(C(=O)N2CCOCC2c2ccnn2C)cn1 (stereo partly shown) [Example I-100] | 90% | 90% | 100% | – | – | 80% | – | 83% | –
CC(NC(=O)c1cc(C(F)(F)F)cc(C(F)(F)F)c1)c1nc(Br)nn1-c1ccc(C(=O)N2CCOCC2)cn1 (racemic) [Example I-86, N-[1-[5-bromo-2-[5-(morpholine-4-carbonyl)-2-pyridyl]-1,2,4-triazol-3-yl]ethyl]-3,5-bis(trifluoromethyl)benzamide] | 100% | 100% | 100% | 80% | – | – | – | 83% | –
C[C@H](NC(=O)c1cc(OC(F)(F)F)cc(C2CC2)c1)c1ncnn1-c1ccc(N2CCOCC2=O)cn1 [Example I-58] | – | – | – | – | – | – | – | – | 90%
C[C@H](NC(=O)c1cc(OC(F)(F)F)cc(C2CC2)c1)c1ncnn1-c1ccc(N2CCOCC2)cn1 [Example I-104] | 100% | 100% | 100% | – | – | 90% | 90% | – | –
Cc1nc([C@H](C)NC(=O)c2cc(OC(F)(F)F)cc(C3CC3)c2)n(-c2ccc(C(=O)N3CCOC[C@@H]3C)cn2)n1 [Example I-129] | 100% | 100% | – | – | – | 100% | – | – | –
C[C@@H]1CN(C(=O)c2cnc(-n3ncnc3[C@H](C)NC(=O)c3cc(OC(F)(F)F)cc(C4CC4)c3)nc2)C[C@H](C)O1 [Example I-148] | – | – | 100% | – | – | – | 90% | 100% | –
Cc1nc([C@H](C)NC(=O)c2cc(C(F)(F)F)cc(C(F)(F)F)c2)n(-c2ccc(C(=O)N3CCOCC3c3ccnn3C)cn2)n1 (stereo partly shown) [Example I-101] | 80% | 80% | – | – | – | 80% | – | 100% | –
